Our source for the Kd, IC50 and Ki values is ChEMBL document CHEMBL5608164, “Targeting kelch-like (KLHL) proteins: achievements, challenges and perspectives” (Eur J Med Chem, 2024).

pIC50, pKd, pKi: −log10 of the molar value. Starred links: 1 amine or outer side, 2 acyl side, 3 side chain; linkers in the order of their positions; H or OH if unused. Positions of bridges follow the written chain, without caps; N, C: chain ends. Residues, ends and D or L forms follow the SMILES beside them. mXylylene = c1cc(C[*:1])cc(C[*:2])c1

The target in one assay is T1, Kelch-like protein 3 (Homo sapiens, UniProt Q9UH77).
T1 sequence (Q9UH77 whole entry): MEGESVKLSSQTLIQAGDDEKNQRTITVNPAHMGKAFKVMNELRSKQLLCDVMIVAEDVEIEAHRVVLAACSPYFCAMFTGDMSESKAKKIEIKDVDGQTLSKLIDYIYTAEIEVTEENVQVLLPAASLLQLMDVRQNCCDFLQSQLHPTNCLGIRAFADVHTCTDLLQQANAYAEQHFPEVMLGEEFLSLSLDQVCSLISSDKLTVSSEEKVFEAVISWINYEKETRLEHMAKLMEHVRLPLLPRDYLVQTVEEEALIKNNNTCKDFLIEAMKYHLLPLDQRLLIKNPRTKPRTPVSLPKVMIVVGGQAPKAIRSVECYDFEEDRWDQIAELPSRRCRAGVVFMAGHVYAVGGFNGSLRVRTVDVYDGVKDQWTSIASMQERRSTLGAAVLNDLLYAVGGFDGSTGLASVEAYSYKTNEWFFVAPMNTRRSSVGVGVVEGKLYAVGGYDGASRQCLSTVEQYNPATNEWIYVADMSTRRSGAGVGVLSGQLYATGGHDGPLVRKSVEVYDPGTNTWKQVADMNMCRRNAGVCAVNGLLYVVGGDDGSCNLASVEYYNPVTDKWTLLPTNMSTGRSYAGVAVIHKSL
In words: Binding affinity to KLHL3 (unknown origin) assessed as dissociation constant by fluorescence polarization assay.

The target of the next assay is T2, Kelch-like protein 20 (Homo sapiens, UniProt Q9Y2M5).
T2 sequence (Q9Y2M5 whole entry): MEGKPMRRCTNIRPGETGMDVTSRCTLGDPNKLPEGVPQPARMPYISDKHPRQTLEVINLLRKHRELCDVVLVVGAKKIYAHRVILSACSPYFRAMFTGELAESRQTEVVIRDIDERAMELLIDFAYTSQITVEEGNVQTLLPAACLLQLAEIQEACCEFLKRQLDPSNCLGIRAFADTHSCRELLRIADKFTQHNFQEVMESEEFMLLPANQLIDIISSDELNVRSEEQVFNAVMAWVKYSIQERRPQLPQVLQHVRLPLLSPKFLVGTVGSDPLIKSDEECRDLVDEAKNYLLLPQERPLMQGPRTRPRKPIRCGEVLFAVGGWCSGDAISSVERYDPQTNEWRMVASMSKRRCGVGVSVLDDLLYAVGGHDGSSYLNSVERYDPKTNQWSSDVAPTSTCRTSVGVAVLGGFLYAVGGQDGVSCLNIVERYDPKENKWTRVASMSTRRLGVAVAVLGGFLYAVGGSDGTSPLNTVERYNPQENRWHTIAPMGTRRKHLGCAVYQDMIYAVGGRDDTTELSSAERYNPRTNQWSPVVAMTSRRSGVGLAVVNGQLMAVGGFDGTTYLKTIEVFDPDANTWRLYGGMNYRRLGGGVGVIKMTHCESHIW
In words: Binding affinity to KLHL20 (unknown origin) assessed as dissociation constant by fluorescence polarization assay. A general note: Polarisation of emitted light reports the rotation of a fluorescent probe.

In a further assay the target is Keap1/Nrf2 (Homo sapiens, UniProt Q14145). In words: Inhibition of Keap1-Nrf2 protein-protein interaction (unknown origin) by fluorescence polarization assay.
Assay [1] in a line: Inhibition of human Kelch-like protein extracted from Escherichia coli.
In assay [2] the target is T3, Kelch-like protein 12 (Homo sapiens, UniProt Q53G59).
T3 sequence (Q53G59 whole entry): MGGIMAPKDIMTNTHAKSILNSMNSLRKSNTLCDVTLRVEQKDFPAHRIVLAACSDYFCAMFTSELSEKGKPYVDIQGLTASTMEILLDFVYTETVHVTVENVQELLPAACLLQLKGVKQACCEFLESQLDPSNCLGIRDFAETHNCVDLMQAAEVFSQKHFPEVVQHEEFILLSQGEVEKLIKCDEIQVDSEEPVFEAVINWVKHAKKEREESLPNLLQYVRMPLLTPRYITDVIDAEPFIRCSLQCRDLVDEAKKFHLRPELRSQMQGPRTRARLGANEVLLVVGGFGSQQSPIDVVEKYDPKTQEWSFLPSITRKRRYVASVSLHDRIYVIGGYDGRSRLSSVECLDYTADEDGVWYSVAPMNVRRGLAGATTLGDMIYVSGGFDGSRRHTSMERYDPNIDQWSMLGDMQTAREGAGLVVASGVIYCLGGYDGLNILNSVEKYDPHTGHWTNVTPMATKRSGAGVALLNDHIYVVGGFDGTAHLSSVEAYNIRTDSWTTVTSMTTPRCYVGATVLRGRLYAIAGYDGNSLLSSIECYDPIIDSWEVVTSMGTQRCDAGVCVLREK
In words: Binding affinity to KLHL12 (unknown origin) assessed as inhibition constant.

Assay [3] concerns the target T3, Kelch-like protein 12. In words: Binding affinity to KLHL12 (unknown origin) extracted from Escherichia coli BL21 Gold (DE3) assessed as dissociation constant by fluorescence polarization assay.

Keap1/Nrf2, sequence (Q16236 whole entry): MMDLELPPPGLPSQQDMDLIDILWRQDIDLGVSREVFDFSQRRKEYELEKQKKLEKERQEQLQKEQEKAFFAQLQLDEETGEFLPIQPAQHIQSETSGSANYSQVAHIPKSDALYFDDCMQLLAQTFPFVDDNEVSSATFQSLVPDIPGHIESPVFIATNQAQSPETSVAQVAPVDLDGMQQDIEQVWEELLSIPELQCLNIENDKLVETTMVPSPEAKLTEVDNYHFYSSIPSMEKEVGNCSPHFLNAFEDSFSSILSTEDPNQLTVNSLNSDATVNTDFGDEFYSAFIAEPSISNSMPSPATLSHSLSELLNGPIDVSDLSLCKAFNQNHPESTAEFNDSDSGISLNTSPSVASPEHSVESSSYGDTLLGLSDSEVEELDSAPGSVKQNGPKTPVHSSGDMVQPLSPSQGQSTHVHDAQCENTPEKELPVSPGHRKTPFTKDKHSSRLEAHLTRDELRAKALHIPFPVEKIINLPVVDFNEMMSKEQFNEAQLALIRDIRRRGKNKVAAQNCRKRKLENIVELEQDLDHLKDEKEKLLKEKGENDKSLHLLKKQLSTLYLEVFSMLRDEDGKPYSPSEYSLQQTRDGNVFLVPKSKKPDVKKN
Keap1/Nrf2, sequence (Q14145 whole entry): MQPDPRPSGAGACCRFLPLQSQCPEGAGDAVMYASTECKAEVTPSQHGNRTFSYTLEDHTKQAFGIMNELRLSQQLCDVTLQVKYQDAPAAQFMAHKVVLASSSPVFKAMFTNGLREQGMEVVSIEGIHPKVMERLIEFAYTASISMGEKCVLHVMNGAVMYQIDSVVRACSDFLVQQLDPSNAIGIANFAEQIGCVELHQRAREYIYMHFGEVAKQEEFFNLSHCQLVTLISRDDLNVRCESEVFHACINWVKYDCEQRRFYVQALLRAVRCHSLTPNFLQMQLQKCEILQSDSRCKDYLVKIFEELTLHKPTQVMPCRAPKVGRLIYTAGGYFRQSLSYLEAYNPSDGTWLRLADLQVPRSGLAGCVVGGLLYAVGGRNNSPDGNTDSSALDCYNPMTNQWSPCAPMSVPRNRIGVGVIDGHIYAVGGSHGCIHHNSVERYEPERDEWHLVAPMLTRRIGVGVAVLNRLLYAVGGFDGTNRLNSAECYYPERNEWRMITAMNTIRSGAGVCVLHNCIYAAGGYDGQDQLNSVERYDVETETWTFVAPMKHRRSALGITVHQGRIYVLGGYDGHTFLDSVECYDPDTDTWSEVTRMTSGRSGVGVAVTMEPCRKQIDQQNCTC

Regarding H-EPEEPEADQHQ-OH, the pKd at Kelch-like protein 3 is 6.16.
Consider `CC(C)C[C@@H]1NC(=O)[C@H](CC(=O)O)NC(=O)[C@@H]2CCCN2C(=O)[C@@H](N)CSCc2cccc(c2)CSC[C@@H](C(N)=O)NC1=O` (H-CPDLC-NH2; linker 1-5 via mXylylene), for which the pKd on Kelch-like protein 20 was 6.22.
On to Ac-DPSTGEL-OH, for which the pIC50 against Keap1/Nrf2 was 4.46.
In assay [1], `CC(C)C[C@H](NC(=O)[C@H](Cc1ccccc1)NC(=O)[C@H](CCC(=O)O)NC(=O)CNC(=O)[C@@H](NC(=O)[C@H](CCC(=O)O)NC(=O)[C@H](CCC(=O)O)NC(=O)[C@H](CC(=O)O)NC(=O)[C@@H](N)CC(C)C)[C@@H](C)O)C(=O)O` showed a negative-log IC50 (pIC50) of 7.70.
On to H-PGAPPGRDLASVP-OH, for which the pKi at Kelch-like protein 12 [2] is 4.68. The pKd at Kelch-like protein 12 [3] was 4.82.

What is called pKd is the Kd on a negative log10 scale, so that one unit is a factor of ten. A word on the pIC50: it is the IC50 on a negative log10 scale, so that one unit is a factor of ten. Low values mean a high IC50, high ones a low IC50. In general, pKi refers to the Ki on a negative log10 scale, so that one unit is a factor of ten.
